The test has as its target ASK1 (Homo sapiens (Human), UniProt Q99683). Description: HTRF KinEASE Assay (TR-FRET, STK3 peptide substrate), inhibition of ASK1. It counts as biochemical. The note with it: 5 nM ASK1 kinase, 1 μM STK3 peptide substrate, 100 μM ATP, 3 hours; compound 0 to 10 μM. The method, then: Assay HTRF® KinEASE™ Assay
ASK1 was purchased from Thermofisher (Catalogue # PV4011), ATP was purchased from Sigma (Catalogue # A7699), HI-TRF® KinEASE™ Assay System was obtained from Cisbio (Bedford, Mass.). […] HTRF® KinEASE™-STK is a generic method for measuring serine/threonine kinase activities using a time-resolved fluorescence resonance energy transfer (TR-FRET) immunoassay. […] 100 Um ATP is added to start kinase reaction and incubated for 3 hours. The STK3-antibody labeled with Eu^3+-Cryptate and 125 Nm streptavidin-XL665 are mixed in a single addition with stop reagents provided by the Cisbio kit used to stop the kinase reaction. […] The resulting TR-FRET is proportional to the phosphorylation level. Staurosporine was used as the positive control. IC50 was determined by Xlfit 5.3.
By using above method, the inhibition of ASK1 was evaluated for the compounds of Formula (I).
(In general: Time-resolved FRET reads energy transfer from a long-lived donor to a nearby acceptor.)

What is called IC50 is the midpoint of a concentration-inhibition curve.

Chain of ASK1 (Q99683 whole entry): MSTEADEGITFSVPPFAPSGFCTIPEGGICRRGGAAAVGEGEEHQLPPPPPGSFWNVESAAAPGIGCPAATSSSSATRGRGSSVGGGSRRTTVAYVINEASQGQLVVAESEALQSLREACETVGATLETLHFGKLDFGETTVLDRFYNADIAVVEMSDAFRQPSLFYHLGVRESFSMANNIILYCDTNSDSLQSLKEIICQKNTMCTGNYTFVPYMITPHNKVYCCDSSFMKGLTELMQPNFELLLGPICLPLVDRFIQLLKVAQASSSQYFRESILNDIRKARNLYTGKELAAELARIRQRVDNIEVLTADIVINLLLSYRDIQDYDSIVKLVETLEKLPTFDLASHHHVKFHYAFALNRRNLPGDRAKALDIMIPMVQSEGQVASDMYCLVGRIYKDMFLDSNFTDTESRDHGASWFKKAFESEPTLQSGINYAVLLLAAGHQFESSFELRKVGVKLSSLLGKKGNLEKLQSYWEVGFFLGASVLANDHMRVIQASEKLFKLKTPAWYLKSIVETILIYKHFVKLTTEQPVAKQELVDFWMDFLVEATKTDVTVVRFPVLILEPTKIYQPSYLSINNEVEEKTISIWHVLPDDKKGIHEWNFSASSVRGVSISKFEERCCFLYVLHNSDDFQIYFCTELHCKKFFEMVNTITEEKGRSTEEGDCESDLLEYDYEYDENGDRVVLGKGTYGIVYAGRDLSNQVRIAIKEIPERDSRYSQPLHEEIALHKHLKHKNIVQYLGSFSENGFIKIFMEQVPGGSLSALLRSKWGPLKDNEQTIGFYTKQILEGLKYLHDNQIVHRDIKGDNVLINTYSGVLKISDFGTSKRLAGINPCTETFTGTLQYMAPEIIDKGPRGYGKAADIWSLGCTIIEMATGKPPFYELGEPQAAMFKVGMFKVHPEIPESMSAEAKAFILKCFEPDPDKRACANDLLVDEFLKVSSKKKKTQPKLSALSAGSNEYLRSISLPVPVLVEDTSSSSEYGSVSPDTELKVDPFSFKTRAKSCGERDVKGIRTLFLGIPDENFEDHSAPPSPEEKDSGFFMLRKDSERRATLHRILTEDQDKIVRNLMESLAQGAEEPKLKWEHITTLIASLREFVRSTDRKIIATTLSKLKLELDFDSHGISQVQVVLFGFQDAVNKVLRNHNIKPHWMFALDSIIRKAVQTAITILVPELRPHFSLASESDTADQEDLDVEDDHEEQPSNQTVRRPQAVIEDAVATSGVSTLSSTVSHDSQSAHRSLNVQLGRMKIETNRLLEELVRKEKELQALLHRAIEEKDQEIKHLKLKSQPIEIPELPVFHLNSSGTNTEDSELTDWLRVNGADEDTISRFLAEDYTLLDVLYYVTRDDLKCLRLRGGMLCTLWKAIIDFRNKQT

On to “2-(N,N-dimethylsulfamoyl)-N-(6-(4-isopropyl-4H-1,2,4-triazol-3-yl)pyridin-2-yl)isoindoline-5-carboxamide [Example 10]”, for which the IC50 is above 1000 nM.

`CC(C)N1Cc2ccc(C(=O)Nc3cccc(-c4nnnn4C(C)C)n3)cc2C1=O` [Example 1, 2-isopropyl-N-(6-(1-isopropyl-1H-tetrazol-5-yl)pyridin-2-yl)-3-oxoisoindoline-5-carboxamide] yielded an IC50 of 100 to 1000 nM.

With `CC(C)n1nnnc1-c1cccc(NC(=O)c2ccc3c(c2)CN(C(=O)OCc2ccccc2)C3)n1` [Example 2], the 50% inhibitory concentration (IC50) is above 1000 nM.

As to `CC(C)n1cnnc1-c1cccc(NC(=O)c2ccc3c(c2)CN(C(=O)OCc2ccccc2)C3)n1` [Example 3, benzyl 5-((6-(4-isopropyl-4H-1,2,4-triazol-3-yl)pyridin-2-yl)carbamoyl)isoindoline-2-carboxylate], the concentration for half-maximal inhibition (IC50) is 10 to 100 nM.

`CC(C)n1cnnc1-c1cccc(NC(=O)c2ccc3c(c2)CN(S(=O)(=O)CCC(F)(F)F)C3)n1` [Example 4, N-(6-(4-isopropyl-4H-1,2,4-triazol-3-yl)pyridin-2-yl)-2-((3,3,3-trifluoropropyl)sulfonyl)isoindoline-5-carboxamide] displayed an IC50 of 100 to 1000 nM.

Consider `CCN(C)C(=O)N1Cc2ccc(C(=O)Nc3cccc(-c4nncn4C(C)C)n3)cc2C1` [Example 5, N2-ethyl-N5-(6-(4-isopropyl-4H-1,2,4-triazol-3-yl)pyridin-2-yl)-N2-methylisoindoline-2,5-dicarboxamide], for which the IC50 lay in the range of 100 to 1000 nM.

As to `COCCS(=O)(=O)N1Cc2ccc(C(=O)Nc3cccc(-c4nncn4C(C)C)n3)cc2C1` [Example 6], the IC50 lay within 100 to 1000 nM.

`CCOC(=O)N1Cc2ccc(C(=O)Nc3cccc(-c4nncn4C(C)C)n3)cc2C1` [Example 7, ethyl 5-((6-(4-isopropyl-4H-1,2,4-triazol-3-yl)pyridin-2-yl)carbamoyl)isoindoline-2-carboxylate] showed an IC50 of 100 to 1000 nM.

`CC(C)n1nnnc1-c1cccc(NC(=O)c2ccc3c(c2)CNC3)n1` [Example 8] showed a half-maximal inhibitory concentration (IC50) above 1000 nM.

`CC(C)n1cnnc1-c1cccc(NC(=O)c2ccc3c(c2)CNC3)n1` [Example 9, N-(6-(4-isopropyl-4H-1,2,4-triazol-3-yl)pyridin-2-yl)isoindoline-5-carboxamide]: the IC50 is above 1000 nM.

`CC(C)n1nnnc1-c1cccc(NC(=O)c2ccc3c(c2)CN(C(=O)N2CCCC2)C3)n1` [Example 11] displayed an IC50 of 100 to 1000 nM.

Compound `CC(C)n1nnnc1-c1cccc(NC(=O)c2ccc3c(c2)CN(C(=O)N(C)C)C3)n1` [Example 12] registered an IC50 of 100 to 1000 nM.

In the case of `CCN(C)C(=O)N1Cc2ccc(C(=O)Nc3cccc(-c4nnnn4C(C)C)n3)cc2C1` [Example 13], the 50% inhibitory concentration (IC50) is above 1000 nM.

As to `CC(C)n1nnnc1-c1cccc(NC(=O)c2ccc3c(c2)CN(S(=O)(=O)CCC(F)(F)F)C3)n1` [Example 14], the IC50 was above 1000 nM.

In turn, `COCCS(=O)(=O)N1Cc2ccc(C(=O)Nc3cccc(-c4nnnn4C(C)C)n3)cc2C1` [Example 15] displayed an IC50 above 1000 nM.

Take `CCOC(=O)N1Cc2ccc(C(=O)Nc3cccc(-c4nnnn4C(C)C)n3)cc2C1` [Example 16]: the IC50 is above 1000 nM.

As to `CC(C)n1cnnc1-c1cccc(NC(=O)c2ccc3c(c2)CN(C(=O)N2CCCC2)C3)n1` [Example 17], the IC50 was in the range of 10 to 100 nM.

In turn, `CC(C)N1Cc2cnc(C(=O)Nc3cccc(-c4nnnn4[C@H](C)CO)n3)cc2C1=O` [Example 18, (R)—N-(6-(1-(1-hydroxypropan-2-yl)-1H-tetrazol-5-yl)pyridin-2-yl)-2-isopropyl-1-oxo-2,3-dihydro-1H-pyrrolo[3,4-c]pyridine-6-carboxamide] returned a half-maximal inhibitory concentration (IC50) of 10 to 100 nM.

As to `CC(C)N1Cc2cnc(C(=O)Nc3cccc(-c4nncn4C(C)C)n3)cc2C1=O` [Example 19, 2-isopropyl-N-(6-(4-isopropyl-4H-1,2,4-triazol-3-yl)pyridin-2-yl)-1-oxo-2,3-dihydro-1H-pyrrolo[3,4-c]pyridine-6-carboxamide], the IC50 lay in the range of 10 to 100 nM.

Compound `CC(C)n1cnnc1-c1cccc(NC(=O)c2cc3c(cc2F)CCN(S(=O)(=O)NC2CC2)C3)n1` [Example 20, 2-(N-cyclopropylsulfamoyl)-6-fluoro-N-(6-(4-isopropyl-4H-1,2,4-triazol-3-yl)pyridin-2-yl)-1,2,3,4-tetrahydroisoquinoline-7-carboxamide] showed a half-inhibitory concentration (IC50) of 1 to 10 nM.

Compound `CC(C)n1cnnc1-c1cccc(NC(=O)c2cc3c(cc2F)CCN(S(=O)(=O)C2CCCC2)C3)n1` [Example 21] displayed a 50% inhibitory concentration (IC50) of 1 to 10 nM.

`CCNS(=O)(=O)N1CCc2cc(F)c(C(=O)Nc3cccc(-c4nncn4C(C)C)n3)cc2C1` [Example 22] displayed a concentration for half-maximal inhibition (IC50) of 1 to 10 nM.

For the compound `COCCS(=O)(=O)N1CCc2cc(F)c(C(=O)Nc3cccc(-c4nncn4C(C)C)n3)cc2C1` [Example 23], the 50% inhibitory concentration (IC50) fell in the range of 1 to 10 nM.

The compound `COCCC(=O)N1CCc2cc(F)c(C(=O)Nc3cccc(-c4nncn4C(C)C)n3)cc2C1` [Example 24, 6-fluoro-N-(6-(4-isopropyl-4H-1,2,4-triazol-3-yl)pyridin-2-yl)-2-(3-methoxypropanoyl)-1,2,3,4-tetrahydroisoquinoline-7-carboxamide] had a half-inhibitory concentration (IC50) of 1 to 10 nM.

For the compound `CC(C)n1cnnc1-c1cccc(NC(=O)c2cc3c(cc2F)CCN(C(=O)OC2CCCC2)C3)n1` [Example 25], the IC50 lay within 1 to 10 nM.

`CCOC(=O)N1CCc2cc(F)c(C(=O)Nc3cccc(-c4nncn4C(C)C)n3)cc2C1` [Example 26] yielded an IC50 of 1 to 10 nM.

On to `CC(C)n1cnnc1-c1cccc(NC(=O)c2cc3c(cc2F)CCNC3)n1` [Example 27], for which the IC50 was 10 to 100 nM.

`COCCC(=O)N1CCc2cc(F)c(C(=O)Nc3cccc(-c4nnnn4C(C)C)n3)cc2C1` [Example 28] showed a half-maximal inhibitory concentration (IC50) of 10 to 100 nM.

Turning to `CCNC(=O)N1CCc2cc(F)c(C(=O)Nc3cccc(-c4nnnn4C(C)C)n3)cc2C1` [Example 29, N2-ethyl-6-fluoro-N7-(6-(1-isopropyl-1H-tetrazol-5-yl)pyridin-2-yl)-3,4-dihydroisoquinoline-2,7(1H)-dicarboxamide], the IC50 was 1 to 10 nM.

Compound `CCOC(=O)N1CCc2cc(F)c(C(=O)Nc3cccc(-c4nnnn4C(C)C)n3)cc2C1` [Example 30] yielded an IC50 of 10 to 100 nM.

`CC(C)n1nnnc1-c1cccc(NC(=O)c2cc3c(cc2F)CCN(C(=O)OCc2ccccc2)C3)n1` [Example 31]: the IC50 was in the range of 10 to 100 nM.

`CC(C)n1cnnc1-c1cccc(NC(=O)c2ccc3c(c2)CN(C(=O)c2nccs2)CC3)n1` [Example 32] yielded a concentration for half-maximal inhibition (IC50) of 10 to 100 nM.

In turn, `C=CCNC(=O)N1CCc2ccc(C(=O)Nc3cccc(-c4nncn4C(C)C)n3)cc2C1` [Example 33] returned an IC50 of 10 to 100 nM.

Turning to `CC(C)n1cnnc1-c1cccc(NC(=O)c2ccc3c(c2)CN(C(=O)OC2CCCC2)CC3)n1` [Example 34], the half-inhibitory concentration (IC50) was 10 to 100 nM.

For `CCCOC(=O)N1CCc2ccc(C(=O)Nc3cccc(-c4nncn4C(C)C)n3)cc2C1` [Example 35], the IC50 is 10 to 100 nM.

In the case of `CCOC(=O)N1CCc2ccc(C(=O)Nc3cccc(-c4nncn4C(C)C)n3)cc2C1` [Example 36], the half-maximal inhibitory concentration (IC50) lay in the range of 10 to 100 nM.

Regarding `CC(C)n1cnnc1-c1cccc(NC(=O)c2ccc3c(c2)CNCC3)n1` [Example 37, N-(6-(4-isopropyl-4H-1,2,4-triazol-3-yl)pyridin-2-yl)-1,2,3,4-tetrahydroisoquinoline-7-carboxamide], the IC50 lay within 100 to 1000 nM.

As to `COCCCN1CCc2ccc(C(=O)Nc3cccc(-c4nncn4C(C)C)n3)cc2C1` [Example 38, N-(6-(4-isopropyl-4H-1,2,4-triazol-3-yl)pyridin-2-yl)-2-(3-methoxypropyl)-1,2,3,4-tetrahydroisoquinoline-7-carboxamide], the concentration for half-maximal inhibition (IC50) lay in the range of 100 to 1000 nM.

With `C=CCN1CCc2ccc(C(=O)Nc3cccc(-c4nncn4C(C)C)n3)cc2C1` [Example 39, 2-allyl-N-(6-(4-isopropyl-4H-1,2,4-triazol-3-yl)pyridin-2-yl)-1,2,3,4-tetrahydroisoquinoline-7-carboxamide], the 50% inhibitory concentration (IC50) lay in the range of 100 to 1000 nM.

`CC(C)n1nnnc1-c1cccc(NC(=O)c2cc3c(cc2F)CCN(S(=O)(=O)CCC(F)(F)F)C3)n1` [Example 40]: the IC50 lay in the range of 10 to 100 nM.

`CCN(CC)C(=O)N1CCc2cc(F)c(C(=O)Nc3cccc(-c4nncn4C(C)C)n3)cc2C1` [Example 41] displayed a 50% inhibitory concentration (IC50) of 1 to 10 nM.

As for `CC(C)CS(=O)(=O)N1CCc2cc(F)c(C(=O)Nc3cccc(-c4nncn4C(C)C)n3)cc2C1` [Example 42], the concentration for half-maximal inhibition (IC50) lay within 1 to 10 nM.

Turning to `CC(C)n1cnnc1-c1cccc(NC(=O)c2cc3c(cc2F)CCN(S(=O)(=O)CC2CC2)C3)n1` [Example 43], the concentration for half-maximal inhibition (IC50) was 10 to 100 nM.

Compound `CC(C)n1cnnc1-c1cccc(NC(=O)c2cc3c(cc2F)CCN(C(=O)N2CCCC2)C3)n1` [Example 44] displayed an IC50 of 1 to 10 nM.

Consider `CCN(C)C(=O)N1CCc2cc(F)c(C(=O)Nc3cccc(-c4nncn4C(C)C)n3)cc2C1` [Example 45], for which the IC50 fell in the range of 1 to 10 nM.

For the compound `CC(C)n1cnnc1-c1cccc(NC(=O)c2cc3c(cc2F)CCN(S(=O)(=O)CCC(F)(F)F)C3)n1` [Example 46], the concentration for half-maximal inhibition (IC50) lay within 1 to 10 nM.

On to `CC(C)n1cnnc1-c1cccc(NC(=O)c2cc3c(cc2F)CCN(S(=O)(=O)C2CC2)C3)n1` [Example 47], for which the half-inhibitory concentration (IC50) was 1 to 10 nM.

Compound `CC(C)n1cnnc1-c1cccc(NC(=O)c2cc3c(cc2F)CCN(C(=O)N(C)C)C3)n1` [Example 48] had an IC50 of 1 to 10 nM.

Regarding `CC(C)n1cnnc1-c1cccc(NC(=O)c2cc3c(cc2F)CCN(S(=O)(=O)N(C)C)C3)n1` [Example 49], the IC50 fell in the range of 1 to 10 nM.

Take `CC(C)n1cnnc1-c1cccc(NC(=O)c2cc3c(cc2F)CCN(C(=O)N2CCOCC2)C3)n1` [Example 50]: the IC50 is 10 to 100 nM.

The values above are taken from patent US10450301B2, “Apoptosis signal-regulating kinase 1 inhibitors and methods of use thereof” (ENANTA PHARMACEUTICALS, INC., priority 2017, dated 2019).
